Experimental data reported in US7018642B2 (The Procter & Gamble Company, priority 2001, dated 2006).

Experiments:
Format in all cases: cell-based
[1] = system: S. epidermidis strain ATCC 35984; experiment: Improved biofilm dispersion screen (already-formed biofilms, crystal violet); conditions: Staphylococcus epidermidis, ATCC35984, no NaOH, positive = dispersion, negative = enhancement of pre-existing biofilm, quadruplicate, read-out: average percentage reduction of biofilm relative to the two control values (dispersion)
Method in brief: (§1)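 Biofilms pre-grown 24 h without compound, then given fresh medium with compound at 390 μM for another 22–26 h. NaOH wash in PBS (0 mM S. epidermidis, 20 mM P. fluorescens, 30 mM P. aeruginosa; 30 min, room temperature), then crystal violet staining. Percent biofilm reduction calculated against t0 and DMSO t24 controls, quadruplicates; negative values mean enhancement.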

[2] = system: P. aeruginosa strain PAO1; experiment: as above; conditions: Pseudomonas aeruginosa, 30 mM NaOH step, positive = dispersion, negative = enhancement of pre-existing biofilm, quadruplicate, read-out: average percentage reduction of biofilm relative to the two control values (dispersion)
Method in brief: as §1

[3] = system: P. fluorescens strain ATCC 13525; experiment: as above; conditions: Pseudomonas fluorescens, ATCC13525, 20 mM NaOH step, positive = dispersion, negative = enhancement of pre-existing biofilm, quadruplicate, read-out: average percentage reduction of biofilm relative to the two control values (dispersion)
Method in brief: as §1

[4] = system: P. aeruginosa strain PAO1; experiment: Biofilm prevention screen (96-well microplate, crystal violet); conditions: Pseudomonas aeruginosa, positive = prevention, negative = enhancement of biofilm formation, quadruplicate, read-out: average percentage reduction of biofilm formed relative to DMSO controls
Method in brief: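 Each strain grown in its own modified medium (PAO1: R2A, no Mg^2+, 0.3–0.5% fructose, 3 μM ferrous ammonium sulfate; ATCC 13525: R2A with pyruvate; ATCC 35984: ¼ TSB, 1% fructose). Compounds at three final concentrations (e.g. 250–500, 160, 32 μM), shaken 16–26 h at 30° C. (pseudomonads) or 37° C. (S. epidermidis). Crystal violet A586; % biofilm reduction versus DMSO, quadruplicate means.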

| SMILES | inhibition at 390 µM [1] [%] | inhibition at 390 µM [2] [%] | inhibition at 390 µM [3] [%] | inhibition at 32 µM [4] [%] | inhibition at 160 µM [4] [%] | inhibition at 390 µM [4] [%] |
| --- | --- | --- | --- | --- | --- | --- |
| CCCCCCCCCCNC(=O)[C@@H]1CCCN1 [Compound 32, L-proline n-decyl amide] | 72 | -107 | 0 | -15 | -43 | 22 |
| CCCCCCCCCCCCNC(=O)[C@@H]1CCCN1 [Compound 168] | 78 | 17 | -3 | 3 | 53 | 91 |
| O=C(NCCCCCCCCCCCCNC(=O)[C@H]1CCCN1)[C@H]1CCCN1 [Compound 226, D-proline 1,12-diaminododecane bisamide] | 26 | 7 | 32 | -23 | 96 | 95 |
